Results as given in patent publication US20260256870A1, “SKIN COMPOSITION” (Eaderm Co., Ltd., priority 2019, published 2026).
“Also recorded” adds a separate entry of the source. Where a name gives a salt, the structure may show the parent alone.

Legend:
[1] = tested on: skin damage induced by erlotinib; test: Improvement of skin damage caused by erlotinib administration, TEWL (Example 10); type: in vivo, C57BL6N mice; settings: erlotinib 50 mg/kg/day intraperitoneal, 7 weeks old or 6 months old mice (FIG. 19)
Protocol: Female […] mice (7 weeks old or 6 months old) were acclimatized to the experimental environment, and then hair was removed from their back under anesthesia. […] The control non-administered group received the 0.5% methylcellulose solution of the solvent in the same way. The control group applied with the solvent and the group applied with 200 μM apocynin received an aqueous solution of each preparation once a day, five times a week on the back. To the control solvent application group the solvent (50% ethanol/PBS) of apocynin was similarly applied.

[2] = tested on: skin damage induced by anticancer drugs; test: TEWL after EGF receptor inhibitor administration (Example 9); settings: control mice about 18 months old, 50 mg/kg/day intraperitoneal, day 7 (FIG. 18)
From the text: A 0.5% methylcellulose solution of the solvent was similarly administered to the control non-treated group. […] Measurements were taken at specific sites on the back of the mice (two sites symmetrically located on the left side and right side from the center of the spine) using Tewameter TN300 (Courage+Khazaka, Integral Corporation, Germany).

COL17A1 [3] = test: Stabilization of COL17A1 against UV-induced repression
back skin = test: Skin elasticity and TEWL after long-term application (Example 14); type: in vivo, hairless mice (HOS: HR-1); settings: three times a week for seven weeks, day 53; retinol 0.1%, apocynin 200 μM (FIG. 23)
Protocol: TEWL measurements and skin elasticity measurements were performed on the back of each group (at two sites on the left side and right side symmetrically from the center of the spine) 7 weeks after the start of application (day 53). TEWL measurements were performed at specific sites on the back of mice (two sites on the left side and right side symmetrically from the center of the spine). The elasticity of the skin was measured using Cutometer MPA580 (Courage+Khazaka, Integral Corporation, Germany) (parameter settings: 300 mba, 2 sec ON time, 2 sec OFF time), and the average value of the three measurements was used for analysis. By suctioning the skin on the back of the mouse for 2 seconds and then releasing the suction 2 seconds later, the length of the skin stretched was measured at each time point immediately after suctioning, immediately before suction release, and immediately after suction release; and they are return of the skin at the time of suction release (Ua: unit mm), rapid stretching in the initial stage of suctioning (Ue: unit mm), maximum degree of skin stretch just before suction release (Uf: unit mm), and the amount of rapid recovery immediately after suction release (Ur: unit mm). R5-Ur/Ue was set as the index of net elasticity, and R7=Ur/Uf as the index of elasticity. R2=Ua/Uf was set as the index of gross elasticity.

[4] = tested on: UV-induced wrinkles of back skin; test: Wrinkle improvement after UV irradiation (Example 15); type: in vivo, Hairless mice HOS: HR-1; settings: UVA+UVB, retinol 0.1%, apocynin 200 μM, long-term application (FIG. 25)
From the text: In a mouse model in which wrinkle formation was induced by long-term exposure to ultraviolet (UVA) light, the present inventors examined the effect of substances that promote the self-renewal ability of epidermal stem cells on the improvement of wrinkles.
Hairless mice HOS: HR-1 females (7 weeks old) were acclimated to the experimental environment and then grouped into the […] groups below, so that their body weight values would be nearly uniform. • No UV irradiation group (n=2). • UV (UVA+UVB) irradiation+solvent application group (n=4) • Ultraviolet (UVA+UVB) irradiation+200 μM apocynin application group (n=4). • UV (UVA+UVB) irradiation+0.1% retinol application group (n=2) […]
For each group of mice from the first to the fourth week after the start of UV irradiation, the back was photographed with a high-resolution three-dimensional image analyzer PRIMOS-CR (Canfield Scientific, Inc., USA). Based on the images obtained, total wrinkle volume (mm^3) and total wrinkle mean depth (μm) were measured with the Primos OMC3_22 software. Skin flexibility was measured using Cutometer MPA580 (Courage+Khazaka, Integral Corporation, Germany), and the value of RO was used as skin flexibility.

COL17A1 [5] = settings: HaCaT cells, 24 hours after hydrogen peroxide treatment (FIG. 17)
Protocol: The anticancer agent hydroxyurea was administered to 7-week-old C57BL6 mice three times a month, and the tissues were collected three months later for immunostaining using an antibody for COL17A1. […] In addition, HaCaT cells, which are human epidermal keratinocytes, were irradiated with radiation (20 Gy, 30 Gy) and UV light (20 mJ, 30 mJ) and the cells were collected after 24 and 72 hours, respectively, and Western blotting was performed using an antibody against COL17A1.

[6] = tested on: human epidermal keratinocytes; test: Colony formation assay using human epidermal keratinocytes; type: cell-based
From the text: To test whether COL17A1-mediated SCD maintains clonal proliferation of epidermal stem cell clones, the present inventors used a colony formation assay, which is an in vitro assay said to be the gold standard for assessing the self-renewal ability of epidermal stem cells, including cells in the tail epidermis.

COL17A1 [7] = test: COL17A1 expression in human epidermal keratinocytes by high content imaging (HCS); type: cell-based; settings: for COL17A1 expression level (control ratio): human epidermal keratinocytes, 48 hours after addition of reagents
Protocol: The present inventors further searched for substances that induce or maintain the expression of COL17A1. Human epidermal keratinocytes were seeded in 384-well plates, cultured for 48 hours after addition of reagents, immunostained with an anti-COL17A1 antibody and a fluorescently labeled secondary antibody, and then the fluorescence intensity per cell was detected using a high content imaging system (HCS: High Content Screening). In addition to cell counting with DAPI, the expression level of COL17A1 was quantified.

UVB-irradiated back skin = test: Barrier function after UVB irradiation (Example 12); type: in vivo, Hairless mice HOS: HR-1; settings: for water content of the stratum corneum after ultraviolet irradiation: UVB 150 mJ/cm^2, fourth day (FIG. 21)
Protocol: Hairless mice HOS: HR-1 females (7 weeks old) were acclimatized to the experimental environment and then grouped into the 6 groups below, so that the body weight values were nearly uniform. • No ultraviolet irradiation group (n=2) • Ultraviolet (UVB) irradiation+solvent application group (n=4). • Ultraviolet (UVB) irradiation+200 nM apocynin application group (n=4). • Ultraviolet (UVB) irradiation+200 μM apocynin application group (n=4). • Ultraviolet (UVB) irradiation+2 μM Y-27632 application group (n=4). • Ultraviolet (UVB) irradiation+20 μM Y-27632 application group (n=4) In the above solution application group, aqueous solutions of each preparation were applied to hairless mice on their back once a day for five days, starting from the day before ultraviolet irradiation. UVB irradiation was carried out using a Yayoi ultraviolet irradiation system (Y-UV-Lab-K-D5 lamp type) at an intensity of 150 mJ/cm^2 once a day. The stratum corneum water content and TEWL of the irradiated area were measured for each group of mice on the fourth day after the start of ultraviolet irradiation. The measurements were performed using Corneometer CM825 and Tewameter TN300 (Courage+Khazaka, Integral Corporation, Germany) at specific sites on the back of the mice.

[8] = tested on: full thickness wounds in the skin of rodent tails; test: Full thickness wound healing in tail skin; type: in vivo, mice; settings: day 0, day 14, day 21 (FIG. 12)
Protocol: To test the above hypothesis, the present inventors performed a full-layer wound healing experiment using the tail skin of aged wild-type mice. […] Forced expression of hCOL17A1 by basal layer keratinocytes in mice also promoted wound healing (FIG. 12). […] To confirm the beneficial effects in vivo, these drugs were administered to full thickness wounds in the skin of rodent tails.

[9] = Table 1, fluorescence intensity per cell

With `C#Cc1cccc(Nc2ncnc3cc(OCCOC)c(OCCOC)cc23)c1` [Erlotinib] the TEWL [1] was “significantly increased” and the TEWL [2] was “significantly increased”.
For `CNC(=O)[C@@H](NC(=O)[C@H](CC(C)C)[C@H](O)C(=O)NO)C(C)(C)C` [Marimastat], the “COL17A1 stability / UV-induced downward repression of COL17A1” value (COL17A1 [3]) was “stabilizes COL17A1 and blocks the UV-induced downward repression of COL17A1”.
For `CC1=C(/C=C/C(C)=C/C=C/C(C)=C/CO)C(C)(C)CCC1` [Retinol], the “TEWL after long-term continuous application” value (back skin) was “significantly increased”, the TEWL [4] was “significantly increased” and the TEWL ([4]; listed as retinol) was “marked increase”.
For `OO` [hydrogen peroxide], the “expression of COL17A1 (Western blot)” value (COL17A1 [5]) was “marked decrease”.
With `O=c1cc(-c2ccc(O)cc2)oc2cc(O)cc(O)c12` [Apigenin] the “Colony area (control ratio)” value ([6]; Table 1) was “○”, the “Colony number (control ratio)” value ([6]; Table 1) was “○” and the “COL17A1 expression level (control ratio)” value (COL17A1 [7]; [9]) was “⊚⊚ (two double circles (⊚⊚) in the COL17A1 expression level (control ratio) represent a 2.0-fold or greater increase in the expression level)”.
`CC(CN(C)C)CN1c2ccccc2CCc2ccccc21` (centres unmarked) [Trimipramine Maleate] was tested, and the “Colony area (control ratio)” value ([6]; Table 1) was “⊚ (one double circle (⊚) indicates maintenance of 1.0-1.2-fold)”, the “Colony number (control ratio)” value ([6]; Table 1) was “⊚ (one double circle (⊚) indicates maintenance of 1.0-1.2-fold)” and the “COL17A1 expression level (control ratio)” value (COL17A1 [7]; [9]) was “⊚⊚ (two double circles (⊚⊚) in the COL17A1 expression level (control ratio) represent a 2.0-fold or greater increase in the expression level)”.
In the case of `O=c1c2ccccc2[se]n1-c1ccccc1` [Ebselen], the “Colony area (control ratio)” value ([6]; Table 1) is reported as “⊚ (one double circle (⊚) indicates maintenance of 1.0-1.2-fold)”, the “Colony number (control ratio)” value ([6]; Table 1) is reported as “⊚ (one double circle (⊚) indicates maintenance of 1.0-1.2-fold)” and the “COL17A1 expression level (control ratio)” value (COL17A1 [7]; [9]) is reported as “⊚ (one double circle (⊚) represents a 1.2-fold or greater increase)”.
With Helenin the “Colony area (control ratio)” value ([6]; Table 2) was “⊚ (one double circle (⊚) indicates maintenance of 1.0-1.2-fold)”, the “Colony number (control ratio)” value ([6]; Table 2) was “⊚ (one double circle (⊚) indicates maintenance of 1.0-1.2-fold)” and the “COL17A1 expression level (control ratio)” value (COL17A1 [7]; Table 2) was “⊚⊚ (two double circles (⊚⊚) in the COL17A1 expression level (control ratio) represent a 2.0-fold or greater increase in the expression level)”.
In the case of `CC(=N)NCc1cccc(CN)c1` [1400 W], the “Colony area (control ratio)” value ([6]; Table 1) is reported as “○”, the “Colony number (control ratio)” value ([6]; Table 1) is reported as “○” and the “COL17A1 expression level (control ratio)” value (COL17A1 [7]; [9]) is reported as “○ (one circle (0) represents a 1.0-1.2-fold maintenance)”.
In the case of `C[C@@H](N)[C@H]1CC[C@H](C(=O)Nc2ccncc2)CC1` [Y-27632], the “water content of the stratum corneum after ultraviolet irradiation” value (UVB-irradiated back skin; 2 μM applied) is reported as “significantly higher”, the “TEWL after ultraviolet irradiation” value (UVB-irradiated back skin; 20 μM administration group, UVB, fourth day (FIG. 21)) is reported as “significantly lower” and the “water content of the stratum corneum after ultraviolet irradiation” value (UVB-irradiated back skin; 20 μM applied) is reported as “significantly higher”. The “wound repair (unrepaired wound area)” value [8] was “significantly accelerated”, the “wound repair (unrepaired wound area)” value ([8]; listed as Y27632) was “significantly promote the wound repair process” and the “Colony area (control ratio)” value ([6]; Table 1) was “⊚ (one double circle (⊚) indicates maintenance of 1.0-1.2-fold)”. The “Colony number (control ratio)” value ([6]; Table 1) was “⊚ (one double circle (⊚) indicates maintenance of 1.0-1.2-fold)”, the number of colonies ([6]; compared to the control, n=3 wells (FIG. 13, FIG. 16)) was “significantly increased” and the “average size of the top five colonies” value ([6]; compared to the control, n=3 wells (FIG. 14)) was “significantly increased”. For the same compound, the colony size ([6]; human epidermal keratinocytes) was “significantly increased”, the “number of colonies with a diameter greater than 2 mm” value ([6]; n=3 wells (FIG. 13 right)) was “significantly increased” and the “COL17A1 expression level (control ratio)” value (COL17A1 [7]; [9]) was “⊚⊚ (two double circles (⊚⊚) in the COL17A1 expression level (control ratio) represent a 2.0-fold or greater increase in the expression level)”. For the same compound, the “COL17A1 expression / amount of COL17A1 in cultured keratinocytes compared to the control” value (COL17A1 [7]; in vitro, HCS (FIG. 15)) was “maintain or induce the COL17A1 expression; also recorded: induce the COL17A1 expression”.
